Data as given in BigSolDB 2.1.

Oc1ccc(/C=C/c2cc(O)cc(O)c2)cc1
solubility (mole fraction)
Conditions | 273.2 K | 283.2 K | 293.2 K | 303.2 K | 313.2 K | 323.2 K
in acetone | 0.0846 | 0.0858 | 0.0871 | 0.0877 | 0.0886 | –
in ethanol | 0.0101 | 0.0127 | 0.0156 | 0.0182 | 0.0208 | 0.0236
in water | – | – | 2.9e-06 | 4.57e-06 | 6.46e-06 | 9.3e-06
